# Experimental data: ChEMBL document CHEMBL5352446, “Synthesis and biological evaluation of a novel c-Myc inhibitor against colorectal cancer via blocking c-Myc/Max heterodimerization and disturbing its DNA binding” (Eur J Med Chem, 2022)
# Calls of active or inactive are those of the source. No cut-off for these calls is given here.
# Columns and labels:
# [1] = system: HT-29; test: Induction of apoptosis in human HT-29 cells assessed as downregulation of Bcl-2 expression incubated for 24 hrs by Western blot analysis; assay type: functional, cell-based; conditions: dose 2.5-10 µM
# [2] = system: HT-29; test: Induction of apoptosis in human HT-29 cells assessed as necrotic cells at 2.5 uM incubated for 24 hrs by FITC Annexin-V and PI staining based flow cytometry analysis (reference value: 0.13%); assay type: functional
# [3] = system: HT-29; test: Induction of apoptosis in human HT-29 cells assessed as viable cells at 0.625 uM incubated for 24 hrs by FITC Annexin-V and PI staining based flow cytometry analysis (reference value: 96.94%); assay type: functional; conditions: read-out: Activity
# [4] = system: HT-29; test: Antitumor activity against human HT-29 cells xenografted in BALB/c mouse assessed as tumor growth inhibition at 80 mg/kg, ip administered daily for 3 weeks by caliper method; assay type: functional; conditions: HT-29, 504 h, read-out: TGI
# [5] = system: HT-29; test: Induction of apoptosis in human HT-29 cells assessed as viable cells at 10 uM incubated for 24 hrs by FITC Annexin-V and PI staining based flow cytometry analysis (reference value: 96.94%); assay type: functional; conditions: read-out: Activity
# [6] = system: HT-29; test: Potency index, ratio of 5-Fu IC50 to test compound IC50 for antiproliferative activity against human HT-29 cells; assay type: functional
# [7] = system: HT-29; test: Induction of apoptosis in human HT-29 cells assessed as late apoptotic cells at 1.25 uM incubated for 24 hrs by FITC Annexin-V and PI staining based flow cytometry analysis (reference value: 0.78%); assay type: functional
# [8] = system: HT-29; test: Induction of cell cycle arrest in human HT-29 cells assessed as accumulation of cells at S phase at 0.625 uM incubated for 24 hrs by propidium iodide staining based flow cytometry analysis (reference value: 12.01 %); assay type: functional
# [9] = system: HT-29; test: Antitumor activity against human HT-29 cells xenografted in ip dosed BALB/c mouse assessed as tumor growth inhibition administered daily for 3 weeks by caliper method; assay type: functional, organism-based; conditions: dose 40-80 mg/kg
# [10] = system: HCT-116; test: cells; conditions: Homo sapiens, HCT-116, 72 h
# Description: Antiproliferative activity against human HCT-116 cells incubated for 72 hrs by MTT assay
# [11] = system: HT-29; test: Induction of apoptosis in human HT-29 cells assessed as necrotic cells at 1.25 uM incubated for 24 hrs by FITC Annexin-V and PI staining based flow cytometry analysis (reference value: 0.13%); assay type: functional
# [12] = system: HT-29; test: Induction of apoptosis in human HT-29 cells assessed as early apoptotic cells at 2.5 uM incubated for 24 hrs by FITC Annexin-V and PI staining based flow cytometry analysis (reference value: 2.15%); assay type: functional
# [13] = system: HT-29; test: Induction of cell cycle arrest in human HT-29 cells assessed as accumulation of cells at G1 phase at 5 uM incubated for 24 hrs by propidium iodide staining based flow cytometry analysis (reference value: 65.37 %); assay type: functional
# [14] = system: HT-29; test: cells; conditions: Homo sapiens, HT-29, 72 h
# Description: Antiproliferative activity against human HT-29 cells incubated for 72 hrs by MTT assay
# [15] = system: HT-29; test: Induction of apoptosis in human HT-29 cells assessed as upregulation of Bax expression incubated for 24 hrs by Western blot analysis; assay type: functional, cell-based; conditions: dose 2.5-10 µM
# [16] = system: HT-29; test: Induction of cell cycle arrest in human HT-29 cells assessed as accumulation of cells at G2 phase at 0.625 uM incubated for 24 hrs by propidium iodide staining based flow cytometry analysis (reference value: 16.33 %); assay type: functional
# [17] = species: Homo sapiens; test: Inhibition of human Myc (353 to 439 residues)/Max(S) (151 residues) expressed in Escherichia coli BL21(DE3) binding to biotinylated double-stranded DNA oligonucleotide 5'-CACCCGGTCACTGGCCTACAC-3' (unknown origin) preincubated for 90 mins followed by oligonucleotide addition for 25 mins by EMSA; conditions: time 115.0 min
# [18] = system: HT-29; test: Induction of apoptosis in human HT-29 cells assessed as early apoptotic cells at 1.25 uM incubated for 24 hrs by FITC Annexin-V and PI staining based flow cytometry analysis (reference value: 2.15%); assay type: functional
# [19] = system: HT-29; test: Induction of apoptosis in human HT-29 cells assessed as late apoptotic cells at 2.5 uM incubated for 24 hrs by FITC Annexin-V and PI staining based flow cytometry analysis (reference value: 0.78%); assay type: functional
# [20] = Toxicity in BALB/c mouse xenografted with human HT-29 cells assessed as kidney damage at 40 to 80 mg/kg, ip measured after 21 days by H and E staining based assay; assay type: organism-based; conditions: in vivo, 504 h, dose 40-80 mg/kg, time 21 day
# [21] = system: HT-29; test: Induction of apoptosis in human HT-29 cells assessed as upregulation of cleaved caspase 3 expression incubated for 24 hrs by Western blot analysis; assay type: functional, cell-based; conditions: dose 2.5-10 µM
# [22] = system: HT-29; test: Induction of apoptosis in human HT-29 cells assessed as necrotic cells at 0.625 uM incubated for 24 hrs by FITC Annexin-V and PI staining based flow cytometry analysis (reference value: 0.13%); assay type: functional
# [23] = system: HT-29; test: Induction of cell cycle arrest in human HT-29 cells assessed as accumulation of cells at G2 phase at 1.25 uM incubated for 24 hrs by propidium iodide staining based flow cytometry analysis (reference value: 16.33 %); assay type: functional
# [24] = system: HCT-8; test: Antiproliferative activity against human HCT-8 cells incubated for 72 hrs by MTT assay; assay type: functional, cell-based; conditions: HCT-8, 72 h
# [25] = system: HT-29; test: Induction of cell cycle arrest in human HT-29 cells assessed as accumulation of cells at G2 phase at 2.5 uM incubated for 24 hrs by propidium iodide staining based flow cytometry analysis (reference value: 16.33 %); assay type: functional
# [26] = Toxicity in BALB/c mouse xenografted with human HT-29 cells assessed as lung damage at 40 to 80 mg/kg, ip measured after 21 days by H and E staining based assay; assay type: organism-based; conditions: in vivo, 504 h, dose 40-80 mg/kg, time 21 day
# [27] = system: HT-29; test: Induction of apoptosis in human HT-29 cells assessed as upregulation of cleaved caspase 9 expression incubated for 24 hrs by Western blot analysis; assay type: functional, cell-based; conditions: dose 2.5-10 µM
# [28] = system: HT-29; test: Induction of cell cycle arrest in human HT-29 cells assessed as accumulation of cells at G1 phase at 1.25 uM incubated for 24 hrs by propidium iodide staining based flow cytometry analysis (reference value: 65.37 %); assay type: functional
# [29] = system: HCT-15; test: Antiproliferative activity against human HCT-15 cells incubated for 72 hrs by MTT assay; assay type: functional, cell-based; conditions: HCT-15, 72 h
# [30] = system: HCT-116; test: Downregulation of c-Myc expression in human HCT-116 cells at 10 uM incubated for 24 hrs by Western blot analysis; assay type: functional, cell-based
# [31] = system: HT-29; test: Induction of cell cycle arrest in human HT-29 cells assessed as accumulation of cells at S phase at 1.25 uM incubated for 24 hrs by propidium iodide staining based flow cytometry analysis (reference value: 12.01 %); assay type: functional
# [32] = system: HT-29; test: Antitumor activity against human HT-29 cells xenografted in BALB/c mouse assessed as tumor growth inhibition at 40 mg/kg, ip administered daily for 3 weeks by caliper method; assay type: functional; conditions: HT-29, 504 h, read-out: TGI
# [33] = Toxicity in BALB/c mouse xenografted with human HT-29 cells assessed as liver damage at 40 to 80 mg/kg, ip measured after 21 days by H and E staining based assay; assay type: organism-based; conditions: in vivo, 504 h, dose 40-80 mg/kg, time 21 day
# [34] = Toxicity in BALB/c mouse xenografted with human HT-29 cells assessed as body weight loss at 40 to 80 mg/kg, ip measured after 21 days; assay type: organism-based; conditions: in vivo, 504 h, dose 40-80 mg/kg, time 21 day
smiles,measurement,setting,value
COc1cc(Oc2ccc(Nc3ccc(CCCO)cc3)cc2)cc(OC)c1CNCCc1ccc(C(F)(F)F)cc1,Activity,[1],Dose-Dependent Effect
same,Activity,[2],3.95%
same,viability at 0.625 µM,[3],89.5%
same,inhibition in vivo at 80 mg/kg,[4],78.4%
same,viability at 10 µM,[5],55.6%
same,Ratio IC50,[6],32
same,Activity,[7],4.55%
same,Activity,[8],14.41%
same,Activity,[9],Dose-Dependent Effect
same,IC50,[10],640 nM
same,Activity,[11],1.72%
same,Activity,[12],19.39%
same,Activity,[13],76.86%
same,IC50,[14],290 nM
same,Activity,[15],Dose-Dependent Effect
same,Activity,[16],11.95%
same,inhibition,[17],Dose-Dependent Effect
same,Activity,[18],12.78%
same,Activity,[19],7.03%
same,Activity,[20],Non-Toxic
same,Activity,[21],Dose-Dependent Effect
same,Activity,[22],1.44%
same,Activity,[23],11.24%
same,IC50,[24],3120 nM
same,Activity,[25],8.23%
same,Activity,[26],Non-Toxic
same,Activity,[27],Dose-Dependent Effect
same,Activity,[28],74.95%
same,IC50,[29],2340 nM
same,Activity,[30],Active
same,Activity,[31],13.16%
same,inhibition in vivo at 40 mg/kg,[32],65.5%
same,Activity,[33],Non-Toxic
same,Activity,[34],Non-Toxic
